Activity calls are given as the source filed them. The rule behind the calls is not given here.

The values that follow come from ChEMBL document CHEMBL1201862, “PubChem BioAssay data set” (2004).

The target in assay [1] is T1, High affinity choline transporter 1 (Homo sapiens, UniProt Q9GZV3).
T1 sequence (Q9GZV3 whole entry): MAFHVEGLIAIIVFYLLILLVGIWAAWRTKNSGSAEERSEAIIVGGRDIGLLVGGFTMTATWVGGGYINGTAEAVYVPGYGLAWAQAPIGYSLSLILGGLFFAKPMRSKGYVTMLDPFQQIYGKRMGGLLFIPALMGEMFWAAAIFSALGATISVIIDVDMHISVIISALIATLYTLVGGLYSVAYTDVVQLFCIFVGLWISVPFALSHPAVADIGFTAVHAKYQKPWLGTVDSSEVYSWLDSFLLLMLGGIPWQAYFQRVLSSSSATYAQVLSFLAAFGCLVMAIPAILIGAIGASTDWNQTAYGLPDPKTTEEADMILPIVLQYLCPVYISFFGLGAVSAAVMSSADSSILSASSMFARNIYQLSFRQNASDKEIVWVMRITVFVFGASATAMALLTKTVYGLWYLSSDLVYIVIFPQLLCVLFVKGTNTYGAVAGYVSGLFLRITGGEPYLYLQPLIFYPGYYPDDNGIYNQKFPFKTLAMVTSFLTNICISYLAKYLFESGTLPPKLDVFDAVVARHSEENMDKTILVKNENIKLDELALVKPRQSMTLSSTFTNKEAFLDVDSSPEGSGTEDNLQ
Briefly: CHT inhibitors, dose response, cell-based, 10-point CRC, membrane potential dye (AID 588401).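 Note: membrane potential dye fluorescence of choline-evoked depolarization via CHT.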 Format: functional.

The target of assay [2] is T1, High affinity choline transporter 1. Briefly: CHT inhibitors, dose response, cell-based, 5-point CRC, membrane potential dye (AID 504840). It counts as functional.

On to `CCc1cccc(C)c1NC(=O)c1ccc(CN2CCc3ccccc3C2)cc1`, for which the IC50 in assay [1] is 7.94 µM (active); in assay [2], 3.88 µM (active).

Broadly, the IC50 is the midpoint of a concentration-inhibition curve.
